Measured values as given in article PMC9848257, “Design and synthesis of novel rigid dibenzo[b,f]azepines through ring closure technique as promising anticancer candidates against leukaemia and acting as selective topoisomerase II inhibitors and DNA intercalators” (Journal of Enzyme Inhibition and Medicinal Chemistry, 2023).

Tests used:
[1] = test system: leukaemia SR cells; assay: Anti-proliferative effect against SR cell line (MTT assay); format: cell-based; settings: Homo sapiens; leukaemia SR cells; unit as in head of Table 3; read-out: Cytotoxicity IC50, SR
Description: The anti-proliferative effect of the 5e counterpart against the SR cell line was estimated using the MTT assay protocol.
Depending on the previous results, the cytotoxic activity of the designed candidate 5e was then evaluated against leukaemia SR cells. Doxorubicin was also evaluated as a reference drug.

[2] = Cytotoxic effect against normal cell line; format: cell-based; settings: human, normal cell line PSC-800-011; read-out: Cytotoxicity IC50, PSC-800-011
Description: Following, the cytotoxic effect of compound 5e against a normal cell line, PSC-800–011, was also assigned to evaluate the selectivity of the compound towards the cancer cell lines. […] However, the selectivity index (SI) of compound 5e was also calculated to confirm its selectivity. It was known that any sample that has an SI value higher than 3 will be considered to have high selectivity.

[3] = test system: Solid Ehrlich carcinoma (SEC); assay: In vivo anti-tumour activity in SEC-bearing mice; set-up: species or system Swiss albino mice; settings: 6 mg/Kg B.W., IP
Description: (§1) The full methodology of tumour induction, treatments, and blood measurements was carried out according to the described details in the supporting information (SI 5). Moreover, the experimental protocol was approved by the Research Ethics Committee at Suez Canal University (Approval number REC139/2022, Chemistry Department, Faculty of Science, Suez Canal University). […]
SI 5.1. Animals and tumor cell line
Adult female Swiss albino mice purchased from Theodor Bilharzia Research Institute, Giza, Egypt, with an average body weight of (18-23) g was used. Mice were housed under constant conditions of 12 h light/dark cycle in a […], with free access to standard laboratory mice food and water.
All procedures related to care and maintenance of the animals were performed according to the international guiding principles for animal research and approved by Faculty of Science, Suez Canal University bioethics and animal ethics committee (Approval number REC-01-2022).
Solid Ehrlich carcinoma (SEC) were got from the National Cancer Institute (Cairo University, Egypt). The tumor cell line was proliferated in mice through serial intraperitoneal (I.P.) transplantation of a volume of 0.2 mL physiological saline contains 1 × 10^6 viable cells for 24 h. SEC cells were collected 7 days after I.P. implantation. The harvested cells were diluted with saline to obtain a concentration of 5 × 10^6 viable SEC cells/mL. A volume of 0.2 mL saline contains 1 × 10^6 SEC cells […]
(§2) that were I.P. implanted into each normal mouse. SEC cells (1 × 10^6 tumor cells/mouse) were implanted subcutaneously into the right thigh of the hind limb.
(§3) The experimental animals were randomly divided into four groups. Group 1 served as the normal saline control. Group 2 served as the SEC control (1 × 10^6 cells/mouse). Group 3 served as the compound-treated group (6 mg/kg B.Wt., I.P.). Group 4 received the standard anticancer drug of […]
(§4) survival were recorded daily until the 24th day in both treated and control groups. At the end of experiment, the blood of each group was collected under light anesthesia for estimation of hematological and biochemical assays. The anesthetized animals were then sacrificed for evaluation of the antitumor activity and histopathological examination.
SI 5.2. Antitumor potentiality
It includes tumor volume, weight, and tumor inhibition ration (TIR%). Time interval measurements of tumor volume using digital Vernier caliper (Tricle Brand, Shanghai, China). Measure tumor length and width using clipper and then calculate tumor volume using formulations V = (L x W x W)/2, where V is tumor volume, W is tumor width, L is tumor length. While TIR% was calculated according to the following equation: […]. […]

[4] = Liver enzymes (ALT, AST) in SEC-bearing mice; format: in vivo, Swiss albino mice; settings: 6 mg/Kg B.W., IP
Description: as §1, §2, §3
as §4, with “examination. […]” for “examination.”
At the end of the experiment, animals from different groups were sacrificed, and blood samples were collected for determination of liver enzymes ALT, AST levels. Activities of aspartate aminotransferase (AST) and alanine aminotransferase (ALT) were evaluated using commercial kits (ELITech clinical systems, France). […]

SMILES: COc1cccc2c1C(=O)c1c(O)c3c(c(O)c1C2=O)C[C@@](O)(C(=O)CO)C[C@@H]3O[C@H]1C[C@H](N)[C@H](O)[C@H](C)O1 [Doxorubicin, reference compound]
- IC50 [1]: 3.78 ± 0.14 µM
- IC50 [2]: 12.8 ± 0.79 µM
- Solid tumour mass ([3]; SEC control 226 mg): 82.3 mg
- Tumour volume ([3]; SEC control 80.6 mm^3): 27.5 mm^3
- ALT ([4]; SEC control 65.9 U/L): 34.8 U/L
- AST ([4]; SEC control 71 U/L): 35.6 U/L
